{"source": "patent US7615567B2", "about": "“Compounds and methods for promoting smoking cessation” (priority 2000, dated 2009)", "key": {"[1]": {"molecular_target": "α4β2 nAChRs (Rattus norvegicus, UniProt P09483+P12390)", "sequence (P09483 31-630)": "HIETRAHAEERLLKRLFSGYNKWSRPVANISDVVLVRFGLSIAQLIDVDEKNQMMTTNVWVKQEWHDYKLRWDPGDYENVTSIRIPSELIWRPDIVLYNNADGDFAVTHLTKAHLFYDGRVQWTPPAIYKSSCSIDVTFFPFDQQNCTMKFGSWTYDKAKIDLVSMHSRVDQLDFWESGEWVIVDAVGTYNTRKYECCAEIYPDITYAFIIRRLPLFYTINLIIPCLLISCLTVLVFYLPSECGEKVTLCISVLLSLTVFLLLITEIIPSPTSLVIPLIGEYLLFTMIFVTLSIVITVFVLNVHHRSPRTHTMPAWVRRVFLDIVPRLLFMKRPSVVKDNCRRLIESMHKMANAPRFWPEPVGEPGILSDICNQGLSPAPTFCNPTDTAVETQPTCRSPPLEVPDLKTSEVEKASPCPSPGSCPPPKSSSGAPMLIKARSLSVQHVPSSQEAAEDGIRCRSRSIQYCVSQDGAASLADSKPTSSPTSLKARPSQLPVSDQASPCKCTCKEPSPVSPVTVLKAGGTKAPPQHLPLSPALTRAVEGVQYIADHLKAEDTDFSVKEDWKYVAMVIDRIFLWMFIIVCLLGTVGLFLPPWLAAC", "sequence (P12390 25-500)": "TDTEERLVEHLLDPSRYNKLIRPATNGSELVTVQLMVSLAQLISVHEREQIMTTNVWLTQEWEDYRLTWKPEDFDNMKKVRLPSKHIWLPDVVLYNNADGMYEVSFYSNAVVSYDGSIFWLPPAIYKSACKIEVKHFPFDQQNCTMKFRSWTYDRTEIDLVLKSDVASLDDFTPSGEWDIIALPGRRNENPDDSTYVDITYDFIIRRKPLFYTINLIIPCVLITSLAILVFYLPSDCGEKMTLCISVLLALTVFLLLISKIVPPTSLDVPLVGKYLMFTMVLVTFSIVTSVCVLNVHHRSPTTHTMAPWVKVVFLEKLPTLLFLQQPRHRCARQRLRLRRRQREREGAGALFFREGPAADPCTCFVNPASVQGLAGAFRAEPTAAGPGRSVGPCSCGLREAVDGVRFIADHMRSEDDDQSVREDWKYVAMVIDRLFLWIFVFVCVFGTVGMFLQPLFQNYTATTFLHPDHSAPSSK", "experiment": "biochemical", "format": "binding"}, "[2]": {"conditions": "Table 1, [3H]epibatidine binding, rat cerebral cortex"}, "[3]": {"conditions": "read-out: α4β2 [^3H]Epibatidine (Ki), Table 1, male rat cerebral cortex homogenate, 0.5-2 nM [3H]epibatidine, Ki from IC50 by Cheng-Prusoff"}}, "note": "Like-named read-outs stand apart in the source and are kept apart here.", "data": [{"smiles": "CN1C2CCC1C(c1ccc(Cl)nc1)C2", "note": "(centres unmarked) [compound 11]", "values": [{"measurement": "melting point", "result": "100 to 102", "unit": "°C"}, {"measurement": "Ki", "setting": "[1]", "result": "22.8 ± 0.001", "unit": "nM"}, {"measurement": "Hill Slope", "setting": "[1]; second table (structures A, B, C), [3H]epibatidine binding, rat cerebral cortex", "result": "1.07 ± 0.05"}]}, {"smiles": "Clc1cncc(C2CC3CCC2N3)c1", "note": "(centres unmarked) [compound 35]", "values": [{"measurement": "Ki", "setting": "[1]", "result": "0.12 ± 0.006", "unit": "nM"}, {"measurement": "Hill Slope", "setting": "[1]; [2]", "result": "0.9 ± 0.03"}]}, {"smiles": "NC1C2CCC1C(c1ccc(Cl)nc1)C2", "note": "(centres unmarked) [compound 3]", "values": [{"measurement": "Ki", "setting": "[1]", "result": "8.2 ± 0.08", "unit": "nM"}, {"measurement": "Hill Slope", "setting": "[1]; [2]", "result": "1.2 ± 0.04"}]}, {"smiles": "Nc1ncc(C2CC3CCC2N3)cc1I", "note": "(stereo not drawn) [RTI-7527-24, 2-exo-[5′-(3′-Iodo-2′-aminopyridinyl)]-7-azabicyclo[2.2.1]-heptane]", "values": [{"measurement": "Hill Slope", "setting": "[1]; Table 1, [3H]epibatidine binding, rat cerebral cortex, listed as 34", "result": "1.08 ± 0.03"}, {"measurement": "Ki", "setting": "[1]; [3]", "result": "35.5 ± 5.4", "unit": "nM"}]}, {"smiles": "Ic1ncc(C2CC3CCC2N3)cc1-c1ccccc1", "note": "(centres unmarked) [RTI-7527-3]", "values": [{"measurement": "Ki", "setting": "[1]", "result": "0.019 ± 0.002", "unit": "nM"}, {"measurement": "Hill Slope", "setting": "[1]; [2]", "result": "0.84 ± 0.02"}]}, {"smiles": "Fc1cncc(C2CC3CCC2N3)c1", "note": "(centres unmarked) [compound 36]", "values": [{"measurement": "Hill Slope", "setting": "[1]; [2]", "result": "0.9 ± 0.01"}, {"measurement": "Ki", "setting": "[1]; [3]", "result": "0.037 ± 0.001", "unit": "nM"}]}, {"smiles": "Clc1ncc(C2CC3CCC2N3)cc1Br", "note": "(centres unmarked) [RTI-7527-53]", "values": [{"measurement": "Hill Slope", "setting": "[1]; [2]", "result": "0.95 ± 0.09"}, {"measurement": "Ki", "setting": "[1]; [3]", "result": "0.013 ± 0.001", "unit": "nM"}]}, {"smiles": "Clc1cc(C2CC3CCC2N3)cnc1Cl", "note": "(centres unmarked) [RTI-7527-5]", "values": [{"measurement": "melting point", "result": "75 to 80", "unit": "°C"}, {"measurement": "Ki", "setting": "[1]", "result": "0.015 ± 0.001", "unit": "nM"}, {"measurement": "Hill Slope", "setting": "[1]; [2]", "result": "0.87 ± 0.04"}]}, {"smiles": "Oc1ncc(C2CC3CCC2N3)cc1-c1ccccc1", "note": "(centres unmarked) [compound 29]", "values": [{"measurement": "Hill Slope", "setting": "[1]", "result": "1.04 ± 0.07"}, {"measurement": "Ki", "setting": "[1]", "result": "51.9 ± 2", "unit": "nM"}]}, {"smiles": "COc1cccc(-c2cc(C3CC4CCC3N4)cnc2Cl)c1", "note": "(centres unmarked) [compound 45]", "values": [{"measurement": "Ki", "setting": "[1]", "result": "0.019 ± 0.005", "unit": "nM"}, {"measurement": "Hill Slope", "setting": "[1]; [2]", "result": "0.8 ± 0.02"}]}, {"smiles": "CN(C)c1ccc(C2CC3CCC2N3)cn1", "note": "(centres unmarked) [compound 19]", "values": [{"measurement": "Hill Slope", "setting": "[1]; [2]", "result": "1.0 ± 0.01"}, {"measurement": "Ki", "setting": "[1]; [3]", "result": "26.4 ± 1.4", "unit": "nM"}]}, {"smiles": "Ic1cncc(C2CC3CCC2N3)c1", "note": "(centres unmarked) [compound 41]", "values": [{"measurement": "Hill Slope", "setting": "[1]; [2]", "result": "0.9 ± 0.02"}, {"measurement": "Ki", "setting": "[1]; [3]", "result": "0.059 ± 0.001", "unit": "nM"}]}, {"smiles": "Clc1ncc(C2CC3CCC2N3)cc1I", "note": "(centres unmarked) [RTI-7527-4]", "values": [{"measurement": "Ki", "setting": "[1]", "result": "0.012 ± 0.0003", "unit": "nM"}, {"measurement": "Hill Slope", "setting": "[1]; [2]", "result": "0.83 ± 0.03"}]}, {"smiles": "Nc1ncc(C2CC3CCC2N3)cc1I", "note": "(centres unmarked) [RTI-7527-57]", "values": [{"measurement": "Ki", "setting": "[1]", "result": "1.47 ± 0.12", "unit": "nM"}, {"measurement": "Hill Slope", "setting": "[1]; Table 1, [3H]epibatidine binding, rat cerebral cortex, listed as 24", "result": "1.07 ± 0.14"}]}, {"smiles": "Clc1ncc(C2CC3CCC2N3)cc1-c1ccccc1", "note": "(centres unmarked) [RTI-7527-2]", "values": [{"measurement": "Hill Slope", "setting": "[1]; [2]", "result": "0.81 ± 0.02"}, {"measurement": "Ki", "setting": "[1]; [3]", "result": "0.021 ± 0.005", "unit": "nM"}]}, {"smiles": "CON=C1C2CCC1C(c1ccc(Cl)nc1)C2", "note": "(centres unmarked) [compound 2]", "values": [{"measurement": "Ki", "setting": "[1]", "result": "> 1000", "unit": "nM"}]}, {"smiles": "Fc1ncc(C2CC3CCC2N3)cc1-c1ccccc1", "note": "(centres unmarked) [compound 47]", "values": [{"measurement": "Ki", "setting": "[1]", "result": "0.14 ± 0.07", "unit": "nM"}, {"measurement": "Hill Slope", "setting": "[1]; [2]", "result": "1.1 ± 0.04"}]}, {"smiles": "OC1C2CCC1C(c1ccc(Cl)nc1)C2", "note": "(centres unmarked) [compound 50]", "values": [{"measurement": "Ki", "setting": "[1]", "result": "> 1000", "unit": "nM"}]}, {"smiles": "Nc1ncc(C2CC3CCC2N3)cc1-c1ccccc1", "note": "(centres unmarked) [RTI-7527-51]", "values": [{"measurement": "Ki", "setting": "[1]", "result": "0.33 ± 0.05", "unit": "nM"}, {"measurement": "Hill Slope", "setting": "[1]; [2]", "result": "0.93 ± 0.03"}]}, {"smiles": "Brc1cc(C2CC3CCC2N3)cnc1I", "note": "(centres unmarked) [RTI-7527-50]", "values": [{"measurement": "Ki", "setting": "[1]", "result": "0.027 ± 0.002", "unit": "nM"}, {"measurement": "Hill Slope", "setting": "[1]; [2]", "result": "0.96 ± 0.05"}]}, {"smiles": "COc1cccc(-c2cncc(C3CC4CCC3N4)c2)c1", "note": "(centres unmarked) [compound 46]", "values": [{"measurement": "Hill Slope", "setting": "[1]; [2]", "result": "0.9 ± 0.03"}, {"measurement": "Ki", "setting": "[1]; [3]", "result": "0.43 ± 0.05", "unit": "nM"}]}, {"smiles": "Nc1ncc(C2CC3CCC2N3)cc1-c1cccc([N+](=O)[O-])c1", "note": "(centres unmarked) [compound 42]", "values": [{"measurement": "Hill Slope", "setting": "[1]", "result": "1.1 ± 0.09"}, {"measurement": "Ki", "setting": "[1]", "result": "0.047 ± 0.002", "unit": "nM"}]}, {"smiles": "Fc1cc(C2CC3CCC2N3)cnc1F", "note": "(centres unmarked) [compound 38]", "values": [{"measurement": "Ki", "setting": "[1]", "result": "0.055 ± 0.001", "unit": "nM"}, {"measurement": "Hill Slope", "setting": "[1]; [2]", "result": "1.0 ± 0.01"}]}, {"smiles": "Fc1ncc(C2CC3CCC2N3)cc1Cl", "note": "(centres unmarked) [compound 37]", "values": [{"measurement": "Ki", "setting": "[1]", "result": "0.02 ± 0.0003", "unit": "nM"}, {"measurement": "Hill Slope", "setting": "[1]; [2]", "result": "0.8 ± 0.004"}]}, {"smiles": "Cc1nc(Cl)ccc1C1CC2CCC1N2", "note": "(centres unmarked) [compound 5]", "values": [{"measurement": "Ki", "setting": "[1]", "result": "256 ± 74", "unit": "nM"}, {"measurement": "Hill Slope", "setting": "[1]; [2]", "result": "1.1 ± 0.03"}]}, {"smiles": "Nc1ccc(C2CC3CCC2C3)cn1", "note": "(centres unmarked) [compound 54]", "values": [{"measurement": "Hill Slope", "setting": "[1]", "result": 1.1}, {"measurement": "Ki", "setting": "[1]", "result": 2200, "unit": "nM"}]}, {"smiles": "Fc1ccc(C2CC3CCC2N3)cn1", "note": "(centres unmarked) [compound 13]", "values": [{"measurement": "Hill Slope", "setting": "[1]; [2]", "result": "0.9 ± 0.02"}, {"measurement": "Ki", "setting": "[1]; [3]", "result": "0.027 ± 0.001", "unit": "nM"}]}, {"smiles": "Fc1ncc(C2CC3CCC2N3)cc1I", "note": "(centres unmarked) [compound 39]", "values": [{"measurement": "Hill Slope", "setting": "[1]", "result": "1.0 ± 0.05"}, {"measurement": "Ki", "setting": "[1]", "result": "0.076 ± 0.004", "unit": "nM"}]}]}
